The target of assay [1] is T1, AHR (Homo sapiens, UniProt P35869).
T1 construct: endogenous in cells; host or cells: HepG2 (human), transfected with a DRE-luciferase reporter only
T1 sequence (P35869 11-848): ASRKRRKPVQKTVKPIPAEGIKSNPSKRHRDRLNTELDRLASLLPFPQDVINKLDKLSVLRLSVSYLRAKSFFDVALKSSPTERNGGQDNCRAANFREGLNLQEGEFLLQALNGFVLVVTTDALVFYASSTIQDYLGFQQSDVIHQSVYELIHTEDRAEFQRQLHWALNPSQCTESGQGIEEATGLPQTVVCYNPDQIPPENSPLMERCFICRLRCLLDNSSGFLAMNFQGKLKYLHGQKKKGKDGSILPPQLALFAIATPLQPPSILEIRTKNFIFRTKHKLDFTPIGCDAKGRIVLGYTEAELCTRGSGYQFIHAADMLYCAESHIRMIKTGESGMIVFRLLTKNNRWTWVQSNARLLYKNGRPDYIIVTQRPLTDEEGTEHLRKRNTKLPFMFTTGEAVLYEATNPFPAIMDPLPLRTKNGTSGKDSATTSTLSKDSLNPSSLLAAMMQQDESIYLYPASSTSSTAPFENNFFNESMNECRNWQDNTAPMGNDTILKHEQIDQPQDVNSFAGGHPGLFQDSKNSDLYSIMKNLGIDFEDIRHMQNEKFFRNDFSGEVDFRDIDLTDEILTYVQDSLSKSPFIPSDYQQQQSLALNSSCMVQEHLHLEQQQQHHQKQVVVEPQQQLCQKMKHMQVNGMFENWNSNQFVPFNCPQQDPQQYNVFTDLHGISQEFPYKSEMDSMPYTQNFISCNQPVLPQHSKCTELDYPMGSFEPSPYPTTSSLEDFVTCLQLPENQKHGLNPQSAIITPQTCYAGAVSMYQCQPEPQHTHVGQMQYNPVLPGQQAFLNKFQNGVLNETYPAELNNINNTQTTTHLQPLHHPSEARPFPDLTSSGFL
Briefly: DRE-Luciferase Reporter Assay, HepG2 (agonist). Type of assay: cell-based. How it is done:
DRE-Luciferase Reporter Assay
AHR binds to Dioxin Responsive Elements (DRE) upstream of genes that it activates. One measure of AHR activity is activation of a reporter gene, such as luciferase, downstream of one or multiple DRE elements. Luciferase activity reflects activation and inhibition of AHR in the cells expressing this reporter.
Murine Hepa1-6 or Hepa-1c1c7 or other murine cell line with a DRE-luciferase reporter either stably or transiently transfected are plated in media in plates (96-well, 384-well or other plates) and incubated overnight at 37 C in a CO2 incubator. Likewise, human HepG2 or other human cell line with a DRE-luciferase reporter either stably or transiently transfected are plated in media in plates (96-well, 384-well or other plates) and incubated overnight at 37 C in a CO2 incubator.
(§1) The next day, an AHR agonist compound is added. Cells are incubated for 6, 16 or 24 hours or another time point and then lysed for determination of luciferase activity as a read-out of the AHR activation. Luciferase can be measured with a commercial kit such as the Promega Luciferase kit or any kit or reagents that provide the luciferin substrate for measuring luciferase activity. The level of luciferase with only activating ligand (e.g. such as TCDD, kynurenine, ITE (2-(1H-indole-3-ylcarbonyl)-4-thiazolecarboxylic methyl ester), VAF347, BNF (beta-naphthoflavone), ICZ (6-formylindolo(3,2-b) carbazole or other AHR ligands) added is the maximum signal while the luciferase with no ligand is the minimum signal. EC50s can be determined as the concentration which activates half of the maximum luciferase activity.
On the technique in general: In a reporter assay the amount or activity of a reporter protein is the signal.

Assay [2] concerns the target T2, AHR (Mus musculus, UniProt P30561).
T2 sequence (P30561 1-848 F348L/P471L): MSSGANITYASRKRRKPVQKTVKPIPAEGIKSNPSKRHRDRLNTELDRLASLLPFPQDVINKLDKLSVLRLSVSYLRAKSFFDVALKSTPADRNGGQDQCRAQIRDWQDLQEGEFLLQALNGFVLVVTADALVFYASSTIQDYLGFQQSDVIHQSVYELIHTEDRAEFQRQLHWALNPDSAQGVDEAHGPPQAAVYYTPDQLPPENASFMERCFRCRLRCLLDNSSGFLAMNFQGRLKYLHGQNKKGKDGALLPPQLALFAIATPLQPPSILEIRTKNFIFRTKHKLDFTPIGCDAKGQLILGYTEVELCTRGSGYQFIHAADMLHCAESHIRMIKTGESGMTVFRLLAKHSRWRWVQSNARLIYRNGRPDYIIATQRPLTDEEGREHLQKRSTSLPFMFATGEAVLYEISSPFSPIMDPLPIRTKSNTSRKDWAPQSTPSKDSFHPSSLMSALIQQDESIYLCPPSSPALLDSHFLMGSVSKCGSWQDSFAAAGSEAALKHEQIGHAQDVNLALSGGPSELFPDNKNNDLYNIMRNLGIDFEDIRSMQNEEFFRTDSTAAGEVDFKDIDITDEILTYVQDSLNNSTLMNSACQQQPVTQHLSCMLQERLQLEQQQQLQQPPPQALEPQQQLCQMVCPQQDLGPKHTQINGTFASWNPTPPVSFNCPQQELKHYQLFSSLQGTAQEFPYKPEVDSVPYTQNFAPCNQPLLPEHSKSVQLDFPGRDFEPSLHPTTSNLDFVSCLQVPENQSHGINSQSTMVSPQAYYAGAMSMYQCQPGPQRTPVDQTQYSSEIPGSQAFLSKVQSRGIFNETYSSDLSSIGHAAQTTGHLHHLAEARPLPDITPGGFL
In words: P450 CYP1A1 Luciferase Assay, Hepa1.6 (agonist). Type of assay: cell-based, murine. Particulars: Hepa1.6, Table 2. How it is done:
P450 CYP1A1 Luciferase Assay
AHR binds to Dioxin Responsive Elements (DRE) upstream of genes that it activates. One measure of AHR activity is P450 CYP1A1 protein levels determined by measuring CYP1A1 enzyme activity using a luminogenic CYP1A1 luciferin-based substrate. Luciferase activity will reflect CYP1A1 activity resulting from activation of AHR in the cells.
Murine Hepa1-6 or Hepa-1c1c7 or other murine cell line, human HepG2 or other human cell line are plated in media (96-well, 384-well or other plates) and incubated overnight at 37 C in a CO2 incubator.
as §1, with “lysed and incubated with a CYP1A1 luciferase-based substrate (e.g. Luciferin-CEE)” for “lysed”, “3, 6, or 12 hours of another time point. Determination” for “determination”, “CYP1A1 enzyme activity” for “the AHR activation. Luciferase”, “P450 Glo CYP1A1 detection reagent” for “Luciferase kit”, “provide” for “provide the luciferin substrate”

Where [3] appears, read: HepG2, Table 2, read-out: DRE-Luc HepG2 - Agonist: Average EC50.
The mark [4] stands for this setting: HepG2, Table 3, read-out: DRE-Luc HepG2 - Agonist: Average EC50.

The structures appear in SMILES notation. Read-outs that look alike come from different tables or passages of the source.

For orientation: EC50 means the midpoint of the concentration-response curve. In the case of `FC(F)(F)c1ccc(Nc2nc(-c3cccc(Cl)c3)cs2)cc1` [I-21], the EC50 in assay [1] (setting [3]) is under 0.01 µM; in assay [2] it was over 1000 nM. On to `CN(C)C(=O)c1cccc(-c2csc(Nc3cccc(C(F)(F)F)c3)n2)c1` [I-50], for which the concentration for a half-maximal effect (EC50) is over 1 µM in assay [1] (setting [3]) and over 1000 nM in assay [2].

Turning to `CN(CCOCCN(c1cccc(C(F)(F)F)c1)c1nc(-c2cccc(Cl)c2)cs1)CC(=O)O` [I-39], the results for the half-maximal effective concentration (EC50) in assay [1] (setting [3]) and in assay [2] were 0.1 to 1 µM and over 1000 nM, respectively. In the same order, the values of `FC(F)(F)c1cccc(Nc2cc(-c3cccc(Cl)c3)cs2)c1` [I-60] are 0.01 to 0.1 µM and over 1000 nM. On the same counts, the results for `FC(F)(F)c1cccc(-c2csc(Nc3cccc(Cl)c3)n2)c1` [I-32] are 0.01 to 0.1 µM and over 1000 nM. In the same order, the values of `FC(F)(F)c1cncc(Nc2nc(-c3cccc(Cl)c3)cs2)c1` [I-5] are under 0.01 µM and over 1000 nM. With `FC(F)(F)c1cccc(Nc2ncc(-c3cccc(Cl)c3)o2)c1` [I-59], the half-maximal effective concentration (EC50) in assay [1] (setting [3]) was under 0.01 µM; in assay [2] it was over 1000 nM. On to `C[N+](C)(CO)CCNC(=O)N(c1cccc(C(F)(F)F)c1)c1nc(-c2cccc(C#N)c2)cs1` [I-16], for which the 50% effective concentration (EC50) in assay [1] (setting [3]) was under 0.01 µM; in assay [2], 100 to 1000 nM. On the same counts, the results for `Clc1cccc(-c2csc(Nc3cccnc3)n2)c1` [Compound P-12] are 0.01 to 0.1 µM and over 1000 nM. On the same counts, the results for `Oc1cccc(-c2csc(Nc3cccc(C(F)(F)F)c3)n2)c1` [I-18] are under 0.01 µM and over 1000 nM.

In the case of `C[N+]1(CCNC(=O)N(c2cccc(C(F)(F)F)c2)c2nc(-c3cccc(Cl)c3)cs2)CCC(O)CC1` (stereo not shown) [I-20], the EC50 in assay [1] (setting [3]) is under 0.01 µM; in assay [2], over 1000 nM.

Regarding `Clc1cccc(Nc2nc(-c3cccc(Cl)c3)cs2)c1` [Compound P-5], the EC50 was under 0.01 µM in assay [1] (setting [3]) and over 1000 nM in assay [2].

For the compound `[O-][n+]1cccc(-c2csc(Nc3cccc(C(F)(F)F)c3)n2)c1` [I-9], the EC50 in assay [1] (setting [3]) was under 0.01 µM; in assay [2], 10 to 100 nM. In the same order, the values of `C[N+](C)(C)CCCC(=O)Nc1cccc(-c2csc(Nc3cccc(C(F)(F)F)c3)n2)c1` [I-40] are 0.1 to 1 µM and over 1000 nM. For `C[N+](C)(C)CCC(=O)Nc1cccc(-c2csc(Nc3cccc(C(F)(F)F)c3)n2)c1` [I-34], the results for the 50% effective concentration (EC50) in assay [1] (setting [3]) and in assay [2] were 0.1 to 1 µM and over 1000 nM, respectively. In the same order, the values of `N#Cc1cccc(-c2csc(Nc3cccc(C(F)(F)F)c3)n2)c1` [I-14] are under 0.01 µM and 10 to 100 nM.

Turning to `NC(=O)c1cccc(-c2csc(Nc3cccc(C(F)(F)F)c3)n2)c1` [I-22], the EC50 in assay [1] (setting [3]) was under 0.01 µM; in assay [2] it was 100 to 1000 nM. For `Cc1ccc(-c2csc(Nc3cccc(C(F)(F)F)c3)n2)cc1[N+](=O)[O-]` [I-11], the values for the EC50 in assay [1] (setting [3]) and in assay [2] were under 0.01 µM and 100 to 1000 nM, respectively. In the same order, the values of `Cc1sc(Nc2cccc(C(F)(F)F)c2)nc1-c1cccc(Cl)c1` [I-27] are 0.01 to 0.1 µM and over 1000 nM. In the same order, the values of `FC(F)(F)c1cccc(Nc2nc(-c3ccc(Cl)c(Cl)c3)cs2)c1` [I-12] are under 0.01 µM and over 1000 nM. With `COc1ccc(-c2csc(Nc3cccc(C(F)(F)F)c3)n2)cc1` [I-46], the concentration for a half-maximal effect (EC50) was over 1 µM in assay [1] (setting [3]) and over 1000 nM in assay [2].

With `C[N+](C)(C)CCNC(=O)N(c1cccc(C(F)(F)F)c1)c1nc(-c2cccc([N+](=O)[O-])c2)cs1` [I-1], the EC50 is under 0.01 µM in assay [1] (setting [3]) and 10 to 100 nM in assay [2].

In the case of `O=[N+]([O-])c1ccc(-c2csc(Nc3cccc(C(F)(F)F)c3)n2)cc1` [Compound P-3], the EC50 is under 0.01 µM in assay [1] (setting [3]) and over 1000 nM in assay [2]. On the same counts, the results for `C[N+](C)(CCO)CCCC(=O)N(c1cccc(C(F)(F)F)c1)c1nc(-c2cccc(Cl)c2)cs1` [I-42] are 0.1 to 1 µM and over 1000 nM. Take `FC(F)(F)Oc1cccc(Nc2nc(-c3cccc(Cl)c3)cs2)c1` [I-13]: the EC50 in assay [1] (setting [3]) is under 0.01 µM; in assay [2], over 1000 nM. On the same counts, the results for `C[N+](C)(CCO)CCNC(=O)N(c1cccc(C(F)(F)F)c1)c1nc(-c2cccc(Cl)c2)cs1` [I-3] are under 0.01 µM and 100 to 1000 nM. On to `C[N+]1(CCNC(=O)N(c2cccc(C(F)(F)F)c2)c2nc(-c3cccc(Cl)c3)cs2)CCCCC1` [I-28], for which the figures for the EC50 in assay [1] (setting [3]) and in assay [2] were 0.01 to 0.1 µM and over 1000 nM, respectively.

As for `FC(F)(F)c1cccc(Nc2nc(-c3ccncc3)cs2)c1` [Compound P-6], the results for the EC50 in assay [1] (setting [3]) and in assay [2] were under 0.01 µM and over 1000 nM, respectively. On the same counts, the results for `N=C(N)c1cccc(-c2csc(Nc3cccc(C(F)(F)F)c3)n2)c1` [I-44] are 0.1 to 1 µM and over 1000 nM. On to `NC(=O)c1cncc(-c2csc(Nc3cccc(C(F)(F)F)c3)n2)c1` [I-17], for which the 50% effective concentration (EC50) in assay [1] (setting [3]) is under 0.01 µM; in assay [2], 100 to 1000 nM. `N#Cc1cc(C(=O)O)cc(-c2csc(Nc3cccc(C(F)(F)F)c3)n2)c1` [I-95]: the 50% effective concentration (EC50) in assay [1] (setting [4]) was over 1 µM. In assay [1] (DRE-Luc HepG2 - Agonist: Average EC50 (μM), HepG2, Table 3), `O=C(O)c1cccc(Nc2nc(-c3cccc([N+](=O)[O-])c3)cs2)c1` [I-81] displayed an EC50 of over 1 µM. Regarding `C[n+]1cccc(-c2csc(N(C(=O)NCCC[N+](C)(C)C)c3cccc(C(F)(F)F)c3)n2)c1` [I-98], the EC50 in assay [1] (setting [4]) was in the range of 0.1 to 1 µM. The same measure, in the same setting: in the case of `O=c1cc(-c2cnc(Nc3cccc(C(F)(F)F)c3)o2)cc[nH]1` [I-126] it was over 1 µM.
